For this experiment, the system named is rat MAPCs. Description: In vitro hepatic differentiation of rat MAPCs, read out by qRT-PCR. It counts as cell-based. Here is the method: Undifferentiated MAPCs were expanded at large scale until several million cells were obtained. Cells then were plated at 50,000-60,000 cells/cm^2 in Matrigel (2%) coated wells. Initially, cells were cultured in expansion medium until they reached 80-90% confluency 16 hours later. Then, cells were washed twice with PBS and the medium was switched to differentiation medium. Basal differentiation medium consisted of DMEM (60%), MCDB (40%), ascorbic acid (IX), penicillin/streptomycin (1×), beta-mercaptoethanol, ITS (0.25×), LA-BSA (0.25×) and dexamethasone (10^-6M). Understanding the molecular signals favoring liver development is essential for the development of a logical in vitro differentiation protocol to modulate stem cell differentiation towards the hepatic fate. With this in mind, different cytokines at variable concentrations and chronological orders were investigated for their hepatocyte inducing capacity in […]. Cytokines tested included Nodal, its co-receptor Cripto, ActivinA, Wnt3a, BMP4, bFGF, aFGF, FGF8b, EGF, Nicotinamide, heparan sulphate proteoglycan, Oncostatin M, HGF and Follistatin. All cytokines were purchased from R&D, Minneapolis, USA. Apart from the cytokines, medium components also play an important role in guiding cells towards a specific fate. […]

With “insulin: medium component (ITS); a lower amount was used to avoid adipogenesis”, the “expression of mature markers (albumin, TAT)” value (high concentration of dexamethasone together with low concentration of insulin in differentiation medium) is reported as “enhanced expression of some mature markers”.

B1: Wnt3a: recombinant cytokine, hepatic differentiation factor, 50 ng/ml in step 1 (protein, UniProt P56704 19-352, looked up)
Protein Wnt-3a: SYPIWWSLAVGPQYSSLGSQPILCASIPGLVPKQLRFCRNYVEIMPSVAEGIKIGIQECQHQFRGRRWNCTTVHDSLAIFGPVLDKATRESAFVHAIASAGVAFAVTRSCAEGTAAICGCSSRHQGSPGKGWKWGGCSEDIEFGGMVSREFADARENRPDARSAMNRHNNEAGRQAIASHMHLKCKCHGLSGSCEVKTCWWSQPDFRAIGDFLKDKYDSASEMVVEKHRESRGWVETLRPRYTYFKVPTERDLVYYEASPNFCEPNPETGSFGTRDRTCNVSSHGIDGCDLLCCGRGHNARAERRREKCRCVFHWCCYVSCQECTRVYDVHTCK
As to B1, the induction of differentiation result (serum-free conditions, in the complete absence of serum cell death occurred) is “differentiation was induced”.

The values are drawn from patent US10457914B2, “Optimized methods for differentiation of cells into cells with hepatocyte and hepatocyte progenitor phenotypes, cells produced by the methods, and methods for using the cells” (priority 2008, dated 2019).
